Laboratory results reported in patent US6545032B1, “Synthesis of [3,5,7]-H-imidazo[1,5-a] imidazol-2(3H)-one compounds” (Torrey Pines Institute for Molecular Studies, priority 1999, dated 2003).

What was measured:
kappa opiate receptor = target: T1, kappa opiate receptor (Cavia porcellus, UniProt P41144); assay: Inhibition of tritiated U69,593 binding to the kappa opiate receptor in guinea pig brain homogenates; set-up: Mean: unit not given beside the values; conditions: 3 nm tritiated U69,593, guinea pig brain membranes; for % Bound: [3H]U69,593 bound; for % Inhibition: inhibition of [3H]U69,593 binding; for Mean: mean bound radioactivity of [3H]U69,593, 2.5 hours 25° C.; for Minus NSB: mean minus non-specific binding
T1 construct: guinea pig cortices and cerebella were homogenized in 40 mL of Buffer A; from tissue; host or cells: guinea pig cortices and cerebella, crude membrane suspension
Experimental: The above-prepared library of individual compounds was screened for the ability to inhibit the binding of tritiated Compound U69,593 that is known to bind specifically to the kappa opiate receptor present in guinea pig brain homogenates following literature procedures. [Dooley et al., J. Biol. Chem., 273(30) 18848-18856 (1998)]
Briefly, guinea pig cortices and cerebella were homogenized in 40 mL of Buffer A [50 mM Tris-HCl, pH 7.4] at 4° C. Homogenates were centrifuged [Beckman® J2-HC, 35, 300×g] for 10 minutes. The pellets were resuspended in fresh buffer and incubated at 37° C. for 40 minutes. Following incubation, the suspensions were centrifuged as before, the resulting pellets resuspended in 100 volumes of Tris buffer, and the suspensions combined. Membrane suspensions were prepared and used on the same day. Protein content of the crude homogenates was determined by the method of Bradford, Anal. Biochem., 72:248-252 (1976).
Each assay tube contained 0.5 mL of membrane suspension, 3 nm of tritiated Compound U69,593 [(5a,7a,8b)-(−)-N-methyl-N-(7-(1-pyrrolidinyl)-1-oxaspiro(4,5)dec-8-yl)-benzeneacetamide; Lahti et al., European J. Pharmacol., 109:281-284(199-85)] in a total volume of 0.65 mL. Assay tubes were incubated for 2.5 hours a 25° C. The assay was then filtered through GF-B filters on a Tomec™ harvester (Orange, Conn.). The filters were subsequently washed with 6 mL of 50 mM Tris-HC1, pH 7.4 at 4° C. Bound radioactivity was counted on a Wallace™ Beta-plate Liquid Scintillation Counter (Piscataway, N.J.). Unlabeled U50, 488 [(trans-(dl)-3,4-dichloro-N-methyl-N-[2-(1-pyrrolidinyl)cyclohexyl]-benzeneacetamide) methane sulfonate hydrate; Lahti et al., Life Sci., 31:2257-xx(1982) and Von Voightlander et al., J. Pharmacol. Exp. Ther., 224:7 (1983)] was used as a competitive inhibitor to generate a standard curve and determine nonspecific binding. The results of these assays are shown in the table, below, wherein the “R” groups are as discussed for Example 1.

mu opiate receptor = target: T2, mu opiate receptor (Rattus norvegicus, UniProt P33535); assay: Inhibition of [3H]DAMGO binding to the mu opiate receptor in rat brain homogenates; set-up: Mean: unit not given beside the values; conditions: 0.08 mg of compound per milliliter, 7 nM 3H-labeled DAMGO, rat brain membranes; for % Bound: [3H]DAMGO bound; for Mean: mean bound radioactivity of [3H]DAMGO; for Minus NSB*: mean minus non-specific binding; for % Inhibition: percent inhibition of DAMGO binding
T2 construct: from tissue; host or cells: rat brain membranes/homogenate
Experimental: The previously prepared [3,5,7]-1H-imidazo[1,5-a]-imidazol-2(3H)-one library of individual compounds was screened for the ability to inhibit the binding of [^3H] [D-Ala^2,MePhe^4,Gly^5-ol]enkephalin (DAMGO) that is known to bind specifically to the mu opiate receptor present in rat brain homogenates following literature procedures. [Dooley et al., Science, 266:2019(1994); U.S. Pat. No. 5,763,193.]
Preparation of rat brain membranes and the receptor binding assay were carried out as described in Dooley et al., Life Sci., 52:1509(1993). Each tube in the screening assay contained 0.08 mg of compound mixture per milliliter, 0.5 mL of membrane suspension (0.1 mg of protein), 7 nM ^3H-labeled DAMGO [specific activity 36 Ci/mmol, obtained from the National Institute on Drug Abuse (NIDA) repository through Chiron Mimotopes PeptideSystems (San Diego, Calif.) and […] of peptide mixture in 50 mM Tris-HCl buffer (pH 7.4). The final volume was 0.65 mL. The results of these screenings are shown in the table, below, wherein the “R” groups are as discussed for Example 1. The results are reported as percent inhibition of DAMGO binding.

T2 sequence (P33535 whole entry): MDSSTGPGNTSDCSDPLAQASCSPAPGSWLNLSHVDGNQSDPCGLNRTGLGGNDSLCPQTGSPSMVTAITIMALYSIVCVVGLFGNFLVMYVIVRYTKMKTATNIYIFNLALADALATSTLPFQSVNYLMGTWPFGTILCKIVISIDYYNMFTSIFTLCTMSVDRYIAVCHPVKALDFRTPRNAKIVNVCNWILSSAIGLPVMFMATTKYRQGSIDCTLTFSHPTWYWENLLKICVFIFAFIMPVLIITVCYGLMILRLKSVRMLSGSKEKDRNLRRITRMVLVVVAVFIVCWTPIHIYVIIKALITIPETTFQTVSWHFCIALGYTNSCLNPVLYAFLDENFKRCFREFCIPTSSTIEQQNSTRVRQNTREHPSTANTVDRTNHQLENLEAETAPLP
T1 sequence (P41144 whole entry): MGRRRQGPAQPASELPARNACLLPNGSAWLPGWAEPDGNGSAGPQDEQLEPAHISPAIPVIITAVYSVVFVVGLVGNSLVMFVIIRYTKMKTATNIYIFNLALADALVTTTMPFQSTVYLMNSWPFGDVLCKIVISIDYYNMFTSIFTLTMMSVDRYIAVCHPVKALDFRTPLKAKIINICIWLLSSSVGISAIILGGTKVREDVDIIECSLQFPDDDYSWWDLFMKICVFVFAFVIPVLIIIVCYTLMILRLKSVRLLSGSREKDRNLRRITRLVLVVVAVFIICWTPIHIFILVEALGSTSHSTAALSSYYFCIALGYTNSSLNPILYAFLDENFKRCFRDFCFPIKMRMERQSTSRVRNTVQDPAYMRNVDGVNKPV

Row | Structure (SMILES) | % Bound (kappa opiate receptor) | % Inhibition (kappa opiate receptor) | Mean (kappa opiate receptor) | Minus NSB (kappa opiate receptor) | % Bound (mu opiate receptor) | Mean (mu opiate receptor) | Minus NSB* (mu opiate receptor) | % Inhibition (mu opiate receptor)
1 | CCOc1ccc(Cc2nc(C(C)C)c3n2C(C(C)C)C(=O)N3)cc1 (racemic) [Pool 79] | 90.338% | 9.662% | 1842.9 | 935.90 | 65% | 929.1 | 621.10 | 35%
2 | CC(C)c1nc(Cc2ccc(Cl)c(Cl)c2)n2c1NC(=O)C2C(C)C (racemic) [Pool 81] | 89.223% | 10.777% | 1831.35 | 924.35 | 71% | 988.3 | 680.30 | 29%
3 | CC(C)c1nc(Cc2cc(C(F)(F)F)cc(C(F)(F)F)c2)n2c1NC(=O)C2C(C)C (racemic) [Pool 82] | 70.589% | 29.411% | 1638.3 | 731.30 | 63% | 911.65 | 603.65 | 37%
4 | CC(C)c1nc(Cc2ccc(-c3ccccc3)cc2)n2c1NC(=O)C2C(C)C (racemic) [Pool 84] | 69.624% | 30.376% | 1628.3 | 721.30 | 57% | 850.4 | 542.40 | 43%
5 | COc1ccc(Cc2nc(C(C)C)c3n2C(C(C)C)C(=O)N3)cc1OC (racemic) [Pool 87] | 81.337% | 18.663% | 1749.65 | 842.65 | 59% | 870.35 | 562.35 | 41%
6 | CC(C)c1nc(Cc2ccccc2)n2c1NC(=O)C2C(C)C (racemic) [Pool 110] | 73.451% | 26.549% | 1667.95 | 760.95 | 54% | 818.7 | 510.70 | 46%
7 | CC(C)c1nc(CCCc2ccccc2)n2c1NC(=O)C2C(C)C (racemic) [Pool 113] | 61.597% | 38.403% | 1545.15 | 638.15 | 43% | 716.3 | 408.30 | 57%
8 | CCCc1nc(C(C)C)c2n1C(C(C)C)C(=O)N2 (racemic) [Pool 121] | 60.468% | 39.532% | 1533.45 | 626.45 | 54% | 826.45 | 518.45 | 46%
9 | CCCCCCc1nc(C(C)C)c2n1C(C(C)C)C(=O)N2 (racemic) [Pool 122] | 51.805% | 48.195% | 1443.7 | 536.70 | 53% | 817.3 | 509.30 | 47%
10 | CC(C)c1nc(C(C)C)n2c1NC(=O)C2C(C)C (racemic) [Pool 123] | 57.124% | 42.876% | 1498.8 | 591.80 | 55% | 832.5 | 524.50 | 45%
11 | Cc1nc(C(C)C)c2n1C(C(C)C)C(=O)N2 (centres unmarked) [Pool 3] | 54.228% | 45.772% | 1468.8 | 561.80 | 70% | 974.05 | 666.05 | 30%
12 | Cc1nc(C(C)C)c2n1C(CC(C)C)C(=O)N2 (centres unmarked) [Pool 4] | 95.420% | 4.580% | 1895.55 | 988.55 | 70% | 980.1 | 672.10 | 30%
13 | CCC(C)C1C(=O)Nc2c(C(C)C)nc(C)n21 (centres unmarked) [Pool 5] | 75.043% | 24.957% | 1684.45 | 777.45 | 78% | 1052.8 | 744.80 | 22%
14 | CCCCC1C(=O)Nc2c(C(C)C)nc(C)n21 (centres unmarked) [Pool 11] | 80.034% | 19.966% | 1736.15 | 829.15 | 47% | 756.05 | 448.05 | 53%
15 | CCCC1C(=O)Nc2c(C(C)C)nc(C)n21 (centres unmarked) [Pool 12] | 74.706% | 25.294% | 1680.95 | 773.95 | 72% | 998.7 | 690.70 | 28%
16 | Cc1nc(C(C)C)c2n1C(C)C(=O)N2 (centres unmarked) [Pool 18] | 88.016% | 11.984% | 1818.85 | 911.85 | 71% | 989.15 | 681.15 | 29%
17 | Cc1nc(C(C)C)c2n1C(C(C)C)C(=O)N2 (centres unmarked) [Pool 19] | 84.580% | 15.420% | 1783.25 | 876.25 | 75% | 1027.75 | 719.75 | 25%
18 | Cc1nc(C(C)C)c2n1C(CC(C)C)C(=O)N2 (centres unmarked) [Pool 20] | 68.996% | 31.004% | 1621.8 | 714.80 | 50% | 787.6 | 479.60 | 50%
19 | CCC(C)C1C(=O)Nc2c(C(C)C)nc(C)n21 (centres unmarked) [Pool 21] | 56.921% | 43.079% | 1496.7 | 589.70 | 55% | 833.5 | 525.50 | 45%
20 | CCCCC1C(=O)Nc2c(C(C)C)nc(C)n21 (centres unmarked) [Pool 27] | 79.855% | 20.145% | 1734.3 | 827.30 | 59% | 871.25 | 563.25 | 41%
21 | CCCC1C(=O)Nc2c(C(C)C)nc(C)n21 (centres unmarked) [Pool 28] | 67.601% | 32.399% | 1607.35 | 700.35 | 66% | 932.9 | 624.90 | 34%
22 | Cc1nc(C(C)C)c2n1C(CC1CCCCC1)C(=O)N2 (centres unmarked) [Pool 29] | 88.277% | 11.723% | 1821.55 | 914.55 | 61% | 891.65 | 583.65 | 39%
